Test results: patent US6521670B1, “Insect control method and composition” (BioAdvantage, Inc., priority 2000, dated 2003)

System: flies, bees, wasps, and other winged insects
Assay: vaporized 1,4-DMN treatment of a closed potato storage facility
Format: in vivo
Procedure: The concentration of vapor of 1,4-DMN in the atmosphere of the storage facility was rather low. […] In the experiment, 500 milliliters and 188 milliliters of 1,4-DMN were vaporized and used. Both concentrations were effective. The facility was in a closed state for about 48 hours.
The ventilation system of the storage facility had been shut off so that there was no fresh air entering the building and the building was not being evacuated during the 1,4-DMN vapor treatment. The effect of the 1,4-DMN on insects within the storage facility was fairly immediate with substantially all the insects being killed within about 24 hours. In regions or facilities with dangerous insects, or where there is a large concentration of less-dangerous insects, such as bees, wasps and the like, which would create risks to workers, a closed facility may be treated to make it safe. Dangerous insects such as spiders, scorpions and the like may also effectively be treated in this manner with 1,4-DMN.

Cc1ccc(C)c2ccccc12 [1,4-DMN, 1,4-dimethylnaphthalene]
time until substantially all the insects were killed (1,4-DMN vapor treatment, closed storage facility without ventilation): ≤ 24 h | insecticidal effectiveness of vapor treatment (188 milliliters of 1,4-DMN vaporized, head space about 9,000 cubic feet, closed about 48 hours): effective | insecticidal effectiveness of vapor treatment (500 milliliters of 1,4-DMN vaporized, head space about 9,000 cubic feet, closed about 48 hours): effective | effect of vaporized 1,4-DMN on insects contained within a potato storage facility (vapor, closed facility of approximately 10,000 cubic feet, head space about 9,000 cubic feet, closed about 48 hours, ventilation shut off): killed or placed in a state of stupor
